Reference: US8178506B2, “Oligomeric compounds and compositions for use in modulation of small non-coding RNAs” (Regulus Therapeutics Inc., priority 2003, dated 2012)
In the oligonucleotide strings, read from the 5' end, every base follows the letter of its sugar. An asterisk marks phosphorothioate; unmarked linkages are phosphodiester. Other units and linkages are bracketed, terminal groups are in braces. A string of capitals states the bases alone. e = 2'-O-(2-methoxyethyl) (MOE); [5mC] = 5-methylcytosine; d = 2'-deoxy (DNA)

System: T47Dp53 cells
Assay: Cell cycle assay in T47Dp53 cells
Type: cell-based, human
Settings: 150 nM, 48 hours, relative to untreated control

## 328403 (antisense eA*eG*eG*e[5mC]*e[5mC]*dT*dA*dT*dT*d[5mC]*d[5mC]*dT*dG*dT*dA*eG*e[5mC]*eA*eA*eA) [compound 328403]
  % cells in cell cycle phase G1: 114%
  % cells in cell cycle phase G2/M: 94%
  % cells in cell cycle phase S: 87%
  % cells in cell cycle phase aneuploid: 89%
  % cells in cell cycle phase subG1: 140%
